{
  "source": "paper PMC11225352",
  "about": "“A multicenter, randomized, double-blind, placebo-controlled ascending dose study to evaluate the safety, tolerability, pharmacokinetics (PK) and pharmacodynamic (PD) effects of Posiphen in subjects with early Alzheimer’s Disease” (Alzheimer's Research & Therapy, 2024)",
  "key": {"[1]": {"system": "sAPPα, sAPPβ and total tau", "parameters": "method as in PMID 22791904", "settings": "four MCI subjects, 60 mg four times per day for 10 days; cited from earlier work"}, "[2]": {"system": "cholinesterase", "parameters": "method as in PMID 11404470", "settings": "cited from earlier work"}, "[3]": {"system": "Aβ38", "experiment": "CSF Aβ38 level, screening to day 21 (MSD immunoassay)", "format": "in vivo, human", "settings": "ANOVA with age and sex as covariates; p = 0.47", "method": "(§1) For biochemical analysis to derive data for SILK, ^13C6-leucine was analyzed in plasma and CSF by mass spectrometry, and Aβ peptides in CSF were analyzed by immunoprecipitation-mass spectrometry (IP-MS) as previously described, by C2N Diagnostics (St Louis, MO). CSF levels of sAPPα, sAPPβ, Aβ38, 40 and 42 were analyzed by the ADCS Biomarker Core using Mesoscale Discovery (MSD) electrochemiluminescent assays (Mesoscale Discovery, Rockville, MD). Levels of Posiphen and its N1 and N8 metabolites in plasma and CSF were measured by Charles River Laboratories (Montreal, CA) by high-performance liquid chromatographic mass spectrometry, with use of deuterated Posiphen (procured by Charles River Laboratories) as an internal standard.\n(§2) Changes in CSF biomarkers from the screening to confinement (sample at time of placement of catheter) were compared in the treatment and placebo groups by ANOVA, with models that included age, sex and baseline MMSE, and further analysis stratified by treatment dose. A similar approach was taken to analyze changes in MMSE, ADAS-cog and NPI. Data were analyzed using R (version 4.2.2)."}, "[4]": {"system": "Aβ40", "experiment": "SILK analysis of CSF Aβ40 (fractional synthesis rate, IP-MS)", "format": "in vivo, human", "method": "From June 5, 2017 to December 31, 2021, we conducted the DISCOVER randomized clinical trial at five participating sites, coordinated by the Alzheimer’s Disease Cooperative Study (ADCS) at UCSD, with funding from the National Institute on Aging and investigational product provided by Annovis, Inc. This study was approved by each participating site’s IRB and was registered on https://www.clinicaltrials.gov/ as NCT02925650. The trial was conducted according to the guidelines of good clinical practice (GCP) and was monitored by the ADCS. A Data Safety Monitoring Board (DSMB) reviewed data for each cohort and for the study overall. […]\nFor the confinement visit, subjects arrived in the early morning after an overnight fast. […] After 36 h, intravenous lines and the CSF catheter were removed, vital signs were measured, physical exam performed, and blood and CSF were sent for routine laboratory studies. […]\nFor biochemical analysis to derive data for SILK, ^13C6-leucine was analyzed in plasma and CSF by mass spectrometry, and Aβ peptides in CSF were analyzed by immunoprecipitation-mass spectrometry (IP-MS) as previously described, by C2N Diagnostics (St Louis, MO). CSF levels of sAPPα, sAPPβ, Aβ38, 40 and 42 were analyzed by the ADCS Biomarker Core using Mesoscale Discovery (MSD) electrochemiluminescent assays (Mesoscale Discovery, Rockville, MD). […]"}, "[5]": {"system": "APP", "parameters": "method as in PMID 36641607", "settings": "mild AD (n = 14), 80 mg once per day, up to 27 days; not significant; cited from earlier work"}, "[6]": {"system": "sAPPα", "experiment": "CSF sAPPα level, screening to day 21 (MSD immunoassay)", "format": "in vivo, human", "settings": "ANOVA with age and sex as covariates; p = 0.38", "method": "as §1, §2"}, "[7]": {"parameters": "method as in PMID 22791904", "settings": "cited from earlier work"}},
  "data": [
    {"smiles": "CN1CC[C@]2(C)c3cc(OC(=O)Nc4ccccc4)ccc3N(C)[C@H]12", "note": "[Posiphen]", "values": [
      {"measurement": "mean CSF sAPPα, sAPPβ and total tau at 10 days compared to pretreatment", "setting": "[1]", "value": "decreased"},
      {"measurement": "anticholinesterase activity", "setting": "[2]", "value": "does not"},
      {"measurement": "CSF Aβ38, Treatment difference (Posiphen – placebo)", "setting": "[3]", "value": "-0.202 (0.27) p = 0.47 pg/mL"},
      {"measurement": "effect on FSR for CSF Aβ40 vs. placebo", "setting": "[4]; after 21 days, FSR from hours 6–16 and automated method, no dose-dependent effect", "value": "no significant effect"},
      {"measurement": "peak in labeling (SILK curve)", "setting": "[4]; single 180 mg per day subject, previous study maximum 24.7 h", "value": "about 28 h"},
      {"measurement": "CSF APP before and after treatment", "setting": "[5]", "value": "small reduction"},
      {"measurement": "CSF sAPPα, Treatment difference (Posiphen – placebo)", "setting": "[6]", "value": "9.99 (10.8) p = 0.38 pg/mL"},
      {"measurement": "safety and tolerability, multiple dose studies", "setting": "[7]; 20, 40 or 60 mg given four times per day", "value": "safe and well-tolerated"},
      {"measurement": "gastro-intestinal side effects", "setting": "[7]; Single Ascending Dose study, daily dose of 160 mg or higher", "value": "high rate of gastro-intestinal side effects"},
      {"measurement": "plasma half-life", "setting": "[7]; oral, up to four times per day", "value": "short"}
    ]}
  ]
}
